Data on 3 substances can be found in patent US6369208B1, “Capped synthetic RNA, analogs, and aptamers” (Merck & Co., Inc., priority 1995, dated 2002).

Test [1] has as its target T1, influenza endonuclease (Influenza A virus, UniProt P03428+P03433).
The target of test [2] is T1, influenza endonuclease. The source holds these as a separate data set.
In test [3] the target is T1, influenza endonuclease. The source holds these as a separate data set.

Consider “m^7GpppG(2′-OMe)UAUUAAUA(3′-dA)-3′ [SEQ.ID.NO.:3]”, for which, on influenza endonuclease [1], the “binding of the labeled capped 10-mer displaced by competition with unlabeled competitor” value was 95% and the saturation amplitude is 5.2 nM. In addition, at influenza endonuclease [2], the “inhibition of influenza endonuclease (in words)” value was “potent inhibitor of influenza endonuclease”.

Take “pppG(2′-OMe)UUUUUAUUUUUAAUUUUC-3′ [SEQ.ID.NO.:4]”: on influenza endonuclease [3], the Km was determined as 0.4 nM and the “site of cleavage by influenza endonuclease” value is recorded as “between the two A's at positions 13-14”.

In the case of “pppG(2′-OMe)UAUUAAUA(3′dA)-3′ [SEQ.ID.NO.:21]”, the “binding of the labeled capped 10-mer competed by unlabeled competitor” value on influenza endonuclease [1] came out at 10%.

The Km is the concentration of substrate that gives half-maximal velocity.
